{"source": "paper PMC4075989", "about": "(Biochemistry, 2014)", "key": {"[1]": {"test": "Serum stability test", "assay_type": "in vitro ADME", "details": "human, 25% human serum (supernatant after centrifugation)"}, "[2]": {"tested_on": "glucocorticoid receptor (C638G)-GFP fusion (GR-GFP) in HeLa cells", "test": "GR-GFP translocation assay"}, "[3]": {"tested_on": "HEK293, MCF-7, A549, H1650, and H1299", "test": "MTT cytotoxicity assay", "assay_type": "cell-based, human", "details": "triplicates"}, "[4]": {"tested_on": "mammalian cells", "details": "cited from earlier work"}}, "note": "Where a SMILES comes first, the peptide text is derived from it. [ ]: non-standard residue; d: D form. 2Nal = N[C@@H](Cc1ccc2ccccc2c1)C(=O)O", "data": [{"smiles": "N=C(N)NCCC[C@H](NC(=O)[C@H](CCCNC(=N)N)NC(=O)[C@H](CCCNC(=N)N)NC(=O)[C@H](CCC(N)=O)NC(=O)[C@H](CCCNC(=N)N)NC(=O)[C@H](CCCNC(=N)N)NC(=O)[C@H](CCCCN)NC(=O)[C@H](CCCCN)NC(=O)[C@H](CCCNC(=N)N)NC(=O)CNC(=O)[C@@H](N)Cc1ccc(O)cc1)C(=O)O", "note": "[Tat]", "values": [{"measurement": "half-life", "setting": "[1]", "result": "~30", "unit": "min"}]}, {"smiles": "C[C@@H]1C[C@H]2[C@@H]3CCC4=CC(=O)C=C[C@]4(C)[C@@]3(F)[C@@H](O)C[C@]2(C)[C@@]1(O)C(=O)CO", "note": "[Dex, dexamethasone]", "values": [{"measurement": "effect of Rab5(Q79L) overexpression on TR", "setting": "[2]", "result": "no effect"}]}, {"smiles": "N=C(N)NCCC[C@H](NC(=O)[C@H](CCCNC(=N)N)NC(=O)[C@H](CCCNC(=N)N)NC(=O)[C@H](CCCNC(=N)N)NC(=O)[C@H](CCCNC(=N)N)NC(=O)[C@H](CCCNC(=N)N)NC(=O)[C@H](CCCNC(=N)N)NC(=O)[C@H](CCCNC(=N)N)NC(=O)[C@@H](N)CCCNC(=N)N)C(=O)O", "note": "[R9]", "values": [{"measurement": "half-life", "setting": "[1]", "result": "~30", "unit": "min"}]}, {"smiles": "N=C(N)NCCC[C@@H]1NC(=O)[C@H](CCCNC(=N)N)NC(=O)[C@H](CCCNC(=N)N)NC(=O)[C@H](Cc2ccc3ccccc3c2)NC(=O)[C@H](Cc2ccccc2)NC(=O)[C@H](CCC(N)=O)NC(=O)[C@H](CCCNC(=N)N)NC1=O", "note": "[cFΦR4] (cyclo(F[2Nal]RRRRQ))", "values": [{"measurement": "growth inhibition after 72 h", "setting": "[3]; 50 μM, 72 h", "result": "up to 20%"}, {"measurement": "growth inhibition after 24 or 48 h", "setting": "[3]; up to 50 μM, any of five human cell lines", "result": "no significant growth inhibition"}, {"measurement": "remaining at 24 h, 5 µM", "setting": "[1]", "result": "> 70", "unit": "%"}, {"measurement": "efficiency of entering the cytoplasm and nucleus relative to nonaarginine (R9)", "setting": "[4]", "result": "2–5 fold"}]}]}
